# Values joined by “and” are separate entries in the source; they are usually repeats but may differ in a detail not shown here. Equal entries are not always repeated.
# Columns and labels:
# [1] = test system: human liver microsomal fraction; experiment: Metabolic stability in human liver microsomes; type: in vitro ADME; conditions: after 1 h incubation, 1 μM
# Description: C57BL/6 mice that had been denied access to food overnight received the indicated oral dose of DS20060511, and blood samples were collected from the tail vein at the indicated timepoints. Plasma samples for quantitation of DS20060511 were prepared by centrifugation. Another group of mice received oral administration DS20060511 (30 mg kg^−1) and euthanized 75 min later. The soleus and gastrocnemius muscles, heart, and inguinal WAT were removed and homogenized in water (5 vol.) for quantitation of the drug concentrations. Plasma samples and tissue homogenates were analyzed by LC-MS/MS (Nexera MP System, SHIMADZU, Kyoto, Japan; API4000 System, SCIEX, Framingham, MA). The tissue concentrations of the compound were calculated by assuming the volume of 1 g of tissue is 1 mL. Evaluation of the metabolic stability of the compound to mouse and human cytochrome P450 (CYP) was conducted as follows. […] The results were expressed as the amount of compound remaining (expressed as a percentage), based on the ratio of the relative area to that in the control (without reaction).
# [2] = test system: C57BL/6 mice; experiment: Oral glucose tolerance test (GTT) in C57BL/6 mice: blood glucose and plasma insulin; type: in vivo, mouse; set-up: Blood glucose AUC: unit not given here
# Description: Fig. 2 Treatment with DS20060511 decreases the blood glucose levels via inducing GLUT4 translocation and increasing skeletal muscle glucose uptake. a, b Blood glucose levels after treatment with DS20060511 (30 mg kg^−1) in C57BL/6 mice that had received continued access to food (a) and mice that had been denied access to food overnight (b) (n = 8). Values shown are means ± SEM. **P < 0.01 vs. 0 min by one-way ANOVA followed by Dunnett’s test. c Blood glucose and plasma insulin levels during oral GTT in the C57BL/6 mice (n = 5–6). The mice received oral administration of vehicle or DS20060511 at the indicated dose, 15 min prior to glucose administration (1.5 g kg^−1). Values shown are means ± SEM. *P < 0.05, **P < 0.01 vs. vehicle by one-way ANOVA followed by Williams’ test. d [^3H]-2-DG uptake in the soleus muscle, gastrocnemius muscle (Gastro.), heart, and white adipose tissue (WAT) at 60 min during the intraperitoneal GTT in the C57BL/6 mice (n = 3). The mice received oral administration of vehicle or DS20060511 (30 mg kg^−1), 15 min prior to glucose administration (1 g kg^−1 glucose containing [^3H]-2-DG). […] Uncropped blots for e can be found in Supplementary Fig. 6.
# Mice that had been denied access to food overnight received the indicated oral dose of DS20060511 or vehicle 15 min prior to the glucose load (1.5 g kg^−1, except for eNOS-knockout mice, which received 3.0 g kg^−1). Then, after the oral glucose load, the blood glucose levels were measured using Glutest Every in samples obtained from the tail vein at the indicated timepoints. Plasma insulin concentrations were also measured with an ELISA kit (Morinaga Institute of Biological Science, Yokohama, Japan) in blood samples collected from the tail vein at the indicated timepoints.
# [3] = test system: C57BL/6 mice; experiment: In vivo [3H]-2-DG uptake into tissues during intraperitoneal GTT; set-up: species or system mouse; conditions: for count (dpm) 2DG / count (dpm) Total / dpm/mg 2DG / dpm/mg 2DGP / dpm/mg Total / Ratio: 30 mg/kg; for Ratio: 2DGP relative to vehicle
# Description: Tissue glucose uptake was examined by measuring the uptake of [^3H]-2-DG during an intraperitoneal GTT as described previously[46],[47], with minor modifications. Mice that had been denied access to food overnight received oral administration of 30 mg kg^−1 of DS20060511 or vehicle 15 min prior to the glucose load. The mice then received intraperitoneal glucose administration (1 g kg^−1 containing 100 μCi kg^−1 [^3H]-2-DG as tracer), followed by quick removal of the tissues 60 min later. Tissue samples were homogenized in 0.5% perchloric acid and centrifuged, and the supernatants were neutralized with KOH. One aliquot of the supernatants was used for measuring the total radioactivity ([^3H]-2-DG and [^3H]-2-DG 6-phosphate ([^3H]-2-DGP)). A second aliquot of the supernatants was treated with 1 N Ba(OH)2 and 1 N ZnSO4 to remove [^3H]-2-DGP, and the [^3H]-2-DG count was measured. 2-DG uptake into the tissue, which is rapidly metabolized to 2-DGP in the tissue, was estimated by subtracting the count of [^3H]-2-DG from the total count. ^3H-specific activities were counted using a liquid scintillation counter.
compound,measurement,setting,value
COc1ccc2c(C)c(C(=O)O)ccc2c1C1C2=C(CC(C)(C)CC2=O)OC2=C1C(=O)CC(C)(C)C2 [DS20060511],compound remaining,[1],79%
same,insulin secretion during oral GTT (in words),"[2]; all DS20060511-treated groups, Fig. 2c",significantly decreased
same,Blood glucose AUC,"[2]; oral GTT, 1 mg/kg",366 and 401 and 377 and 335 and 390 and 419
same,Plasma insulin AUC,"[2]; oral GTT, 1 mg/kg",0.29 and 0.49 and 0.32 and 0.27 and 0.43
same,Blood glucose,"[2]; oral GTT, 1 mg/kg po at -15 min, -15 min, 1 mg/kg",83 mg/dL and 81 mg/dL and 91 mg/dL and 77 mg/dL and 94 mg/dL and 72 mg/dL
same,Blood glucose,"[2]; oral GTT, 1 mg/kg, 0 min",104 mg/dL and 115 mg/dL and 92 mg/dL and 106 mg/dL and 89 mg/dL
same,Blood glucose,"[2]; oral GTT, 1 mg/kg, 15 min",270 mg/dL and 311 mg/dL and 217 mg/dL and 301 mg/dL
same,Blood glucose,"[2]; oral GTT, 1 mg/kg, 30 min",242 mg/dL and 212 mg/dL and 228 mg/dL and 193 mg/dL and 199 mg/dL and 254 mg/dL
same,Plasma insulin,"[2]; oral GTT, 1 mg/kg, 30 min",0.30 ng/mL and 0.44 ng/mL and 0.25 ng/mL and 0.34 ng/mL and 0.42 ng/mL and 0.33 ng/mL
same,Blood glucose,"[2]; oral GTT, 1 mg/kg, 60 min",171 mg/dL and 217 mg/dL and 165 mg/dL and 153 mg/dL and 199 mg/dL and 230 mg/dL
same,Blood glucose,"[2]; oral GTT, 1 mg/kg, 90 min",118 mg/dL and 159 mg/dL and 127 mg/dL and 138 mg/dL and 142 mg/dL and 153 mg/dL
same,Blood glucose,"[2]; oral GTT, 1 mg/kg, 120 min",106 mg/dL and 119 mg/dL and 109 mg/dL and 124 mg/dL and 132 mg/dL
same,Blood glucose AUC,"[2]; oral GTT, 3 mg/kg",360 and 323 and 398 and 316 and 320 and 374
same,Plasma insulin AUC,"[2]; oral GTT, 3 mg/kg",0.28 and 0.40 and 0.34 and 0.29 and 0.31
same,Blood glucose,"[2]; oral GTT, 3 mg/kg, 0 min",104 mg/dL and 117 mg/dL and 90 mg/dL
same,Blood glucose,"[2]; oral GTT, 3 mg/kg, 15 min",263 mg/dL and 240 mg/dL and 249 mg/dL and 228 mg/dL
same,Plasma insulin,"[2]; oral GTT, 3 mg/kg, 15 min",0.51 ng/mL and 0.58 ng/mL and 0.65 ng/mL and 0.53 ng/mL
same,Blood glucose,"[2]; oral GTT, 3 mg/kg, 30 min",228 mg/dL and 164 mg/dL and 233 mg/dL and 181 mg/dL
same,Plasma insulin,"[2]; oral GTT, 3 mg/kg, 30 min",0.28 ng/mL and 0.30 ng/mL and 0.37 ng/mL and 0.39 ng/mL and 0.26 ng/mL
same,Blood glucose,"[2]; oral GTT, 3 mg/kg, 60 min",161 mg/dL and 142 mg/dL and 202 mg/dL and 152 mg/dL
same,Blood glucose,"[2]; oral GTT, 3 mg/kg, 90 min",132 mg/dL and 126 mg/dL and 148 mg/dL and 100 mg/dL
same,Blood glucose,"[2]; oral GTT, 3 mg/kg, 120 min",105 mg/dL and 122 mg/dL and 129 mg/dL
same,Blood glucose,"[2]; oral GTT, 3 mg/kg, -15 min",82 mg/dL and 84 mg/dL and 94 mg/dL and 79 mg/dL
same,Blood glucose AUC,"[2]; oral GTT, 10 mg/kg",294 and 310 and 309 and 270 and 269
same,Plasma insulin AUC,"[2]; oral GTT, 10 mg/kg",0.29 and 0.30 and 0.32 and 0.43 and 0.41
same,Plasma insulin,"[2]; oral GTT, 10 mg/kg, 15 min",0.51 ng/mL and 0.50 ng/mL and 0.54 ng/mL and 0.40 ng/mL and 0.68 ng/mL
same,Plasma insulin,"[2]; oral GTT, 10 mg/kg, 30 min",0.35 ng/mL and 0.28 ng/mL and 0.43 ng/mL and 0.31 ng/mL and 0.46 ng/mL
same,Blood glucose AUC,"[2]; oral GTT, 30 mg/kg",258 and 200 and 219 and 225 and 241
same,Plasma insulin AUC,"[2]; oral GTT, 30 mg/kg",0.21 and 0.30 and 0.35 and 0.22 and 0.34
same,Plasma insulin,"[2]; oral GTT, 30 mg/kg, 15 min",0.46 ng/mL and 0.58 ng/mL and 0.48 ng/mL and 0.34 ng/mL
same,blood glucose levels after oral glucose load (in words),"[2]; oral GTT, given prior to glucose load, Fig. 2c",dose-dependent suppression of rise of the blood glucose levels
same,count (dpm) 2DG,[3]; Gastro.,405 dpm and 366 dpm and 390 dpm
same,count (dpm) Total,[3]; Gastro.,1890 dpm and 1397 dpm and 1924 dpm
same,dpm/mg 2DG,[3]; Gastro.,63.3 dpm/mg and 57.2 dpm/mg and 60.9 dpm/mg
same,dpm/mg 2DGP,[3]; Gastro.,54.8 dpm/mg and 30.1 dpm/mg and 59.3 dpm/mg
same,dpm/mg Total,[3]; Gastro.,118.1 dpm/mg and 87.3 dpm/mg and 120.3 dpm/mg
same,Ratio,[3]; Gastro.,4.35 and 2.39 and 4.70
same,count (dpm) 2DG,[3]; Heart,398 dpm and 423 dpm and 382 dpm
same,count (dpm) Total,[3]; Heart,1218 dpm and 1277 dpm and 1201 dpm
same,dpm/mg 2DG,[3]; Heart,62.2 dpm/mg and 66.1 dpm/mg and 59.7 dpm/mg
same,dpm/mg 2DGP,[3]; Heart,39.3 dpm/mg and 40.3 dpm/mg and 40.4 dpm/mg
same,dpm/mg Total,[3]; Heart,101.5 dpm/mg and 106.4 dpm/mg and 100.1 dpm/mg
same,Ratio,[3]; Heart,0.90 and 0.93
same,count (dpm) 2DG,[3]; Soleus,214 dpm and 169 dpm and 183 dpm
same,dpm/mg 2DG,[3]; Soleus,100.3 dpm/mg and 79.2 dpm/mg and 85.8 dpm/mg
same,dpm/mg Total,[3]; Soleus,286.0 dpm/mg and 229.5 dpm/mg and 201.0 dpm/mg
same,count (dpm) Total,"[3]; Soleus, 30 mg/kg po, 60 min during ip GTT",572 dpm and 459 dpm and 402 dpm
same,dpm/mg 2DGP,"[3]; Soleus, 2-DG uptake = Total minus 2DG",185.7 dpm/mg and 150.3 dpm/mg and 115.2 dpm/mg
same,Ratio,[3]; Soleus,4.96 and 4.02 and 3.08
same,count (dpm) 2DG,[3]; WAT,697 dpm and 877 dpm and 734 dpm
same,count (dpm) Total,[3]; WAT,1450 dpm and 1799 dpm and 1511 dpm
same,dpm/mg 2DG,[3]; WAT,34.9 dpm/mg and 43.9 dpm/mg and 36.7 dpm/mg
same,dpm/mg 2DGP,[3]; WAT,13.5 dpm/mg and 16.1 dpm/mg and 13.7 dpm/mg
same,dpm/mg Total,[3]; WAT,48.3 dpm/mg and 60.0 dpm/mg and 50.4 dpm/mg
same,Ratio,[3]; WAT,0.99 and 1.18 and 1.00
same,uptake of [3H]-2-DG (in words),"[3]; soleus and gastrocnemius muscles, ip GTT, 30 mg kg−1",significant increase

# Source: paper PMC8379256, “A xanthene derivative, DS20060511, attenuates glucose intolerance by inducing skeletal muscle-specific GLUT4 translocation in mice” (Communications Biology, 2021)
